Earlier results in patent US9889198B2 (KemPharm, Inc., priority 2010, dated 2018).
One block for each molecule: values may come before it.

What was measured:
[1] = biological target: human NET (Homo sapiens, UniProt P23975); conditions: relative to quetiapine
[2] = biological target: T1, 5-HT1A receptor (Homo sapiens, UniProt P08908); conditions: relative to quetiapine
T1 sequence (P08908 1-422): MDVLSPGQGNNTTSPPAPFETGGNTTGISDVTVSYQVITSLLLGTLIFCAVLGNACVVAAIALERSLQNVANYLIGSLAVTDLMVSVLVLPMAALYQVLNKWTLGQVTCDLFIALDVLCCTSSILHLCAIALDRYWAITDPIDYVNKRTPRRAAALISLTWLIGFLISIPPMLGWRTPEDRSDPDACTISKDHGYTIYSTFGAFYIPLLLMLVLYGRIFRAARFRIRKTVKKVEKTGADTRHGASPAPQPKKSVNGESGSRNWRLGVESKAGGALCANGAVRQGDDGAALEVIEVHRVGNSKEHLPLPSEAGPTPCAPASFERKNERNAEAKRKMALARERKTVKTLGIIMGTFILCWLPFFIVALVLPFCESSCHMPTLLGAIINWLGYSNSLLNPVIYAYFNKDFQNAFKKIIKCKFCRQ

[3] = test system: leptin release; conditions: chronic oral administration, 6 weeks

Sequence of human NET (P23975 whole entry): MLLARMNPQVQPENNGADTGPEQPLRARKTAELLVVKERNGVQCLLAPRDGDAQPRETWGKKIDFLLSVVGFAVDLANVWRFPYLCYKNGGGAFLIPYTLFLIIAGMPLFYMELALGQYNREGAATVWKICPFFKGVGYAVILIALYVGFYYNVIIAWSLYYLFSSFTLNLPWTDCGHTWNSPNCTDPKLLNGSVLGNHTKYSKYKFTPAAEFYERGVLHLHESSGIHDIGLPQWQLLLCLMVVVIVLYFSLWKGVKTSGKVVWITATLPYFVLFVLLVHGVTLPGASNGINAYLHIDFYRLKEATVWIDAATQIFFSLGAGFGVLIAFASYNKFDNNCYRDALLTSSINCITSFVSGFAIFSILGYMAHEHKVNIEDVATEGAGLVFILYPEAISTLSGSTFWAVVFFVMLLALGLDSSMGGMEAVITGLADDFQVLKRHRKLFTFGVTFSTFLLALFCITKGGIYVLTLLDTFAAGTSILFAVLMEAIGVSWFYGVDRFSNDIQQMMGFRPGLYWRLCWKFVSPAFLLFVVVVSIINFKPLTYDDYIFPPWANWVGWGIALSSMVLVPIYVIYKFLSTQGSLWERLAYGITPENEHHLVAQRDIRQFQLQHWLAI

SMILES: c1ccc2c(c1)N=C(N1CCNCC1)c1ccccc1S2 [N-desalkyl-quetiapine]
higher avidity for inhibiting human NET than quetiapine [1]: about 100 fold
more potent than quetiapine at the 5-HT1A receptor [2]: 10 fold

SMILES: CCCC(CCC)C(=O)O [Valproic acid, 2-propylpentanoic acid]
response rate in acute mania (acute mania patients): around 50%
response rate in bipolar depression (bipolar depression): ~30%

increase in leptin release [3]: about 37%
SMILES: OCCOCCN1CCN(C2=Nc3ccccc3Sc3ccccc32)CC1 [quetiapine, 2-(2-(4-(dibenzo[b,f][1,4]thiazepin-11-yl)piperazin-1-yl)ethoxy)ethanol]
